# Assay results reported in patent US10774084B2, “Adenine derivatives and their use as UV-photoprotective agents” (UNIVERZITA PALACKEHO V OLOMOUCI, priority 2015, dated 2020).
# System: human dermal fibroblast (HDF)
# Test: Comparative gene expression analysis (mRNA sequencing)
# Format: cell-based
# Details: 5 μM, 24 h
# Description: Comparative gene expression analysis in human dermal fibroblast (HDF) was performed to gain insight into role of compound 1 in the photoprotection against UV-induced damage. Three independent HDF lines form three patients were treated with 5 μM 1 for 24 h or mock-treated with DMSO. Alternatively, the above three biological samples (without 1) were irradiated with UV light (5 J/cm2). 1.5-3.0×10^6 cells from each treatment or control was used for isolation of total RNA using trizol. cDNA sequencing libraries were prepared with the Illumina TruSeq Stranded mRNA LT Sample Prep Kit (Illumina, San Diego, Calif.) according to standard Illumina's protocols and sequenced on HiSeq 2500 apparatus (50 bp single-end reads).
# To reveal the molecular mechanism of the action of 1, we compared data from mock (DMSO)-treated HDF or UV-treated HDF with those obtained after 24 h treatment with 1. For data analysis, we performed ab initio method where sequencing reads were mapped to the reference genome. […] These included calcium-activated potassium channel KCNN4, calcium sensor DYSF or calcium-dependent phospholipid-binding protein CPNE7. […] Thus, 1 seems to protect cells against oxidative damage caused primarily by UV-light or other stress conditions.
# [1] = 1-treated vs UV-treated group, P<0.05
smiles,measurement,setting,value
"c1nc(NCC2CCCO2)c2ncn(C3CCCO3)c2n1 (centres unmarked) [Compound 1, 6-(tetrahydrofuran-2-ylmethylamino)-9-(tetrahydrofuran-2-yl)purine]",number of differentially regulated genes,[1],1306 genes
same,number of downregulated genes,[1],441 genes
same,number of upregulated genes,[1],865 genes
same,"significantly regulated genes, control group vs samples treated with 1 (in words)",vs DMSO mock,did not show any significantly regulated genes
same,logFC ABCG1,vs UV-treated group,−2.63
same,logFC AC002456.2,vs UV-treated group,1.58
same,logFC AC003986.6,vs UV-treated group,−1.65
same,logFC ADAMTS9-AS2,vs UV-treated group,−1.63
same,logFC ADGRG1,vs UV-treated group,1.52
same,logFC ANGPTL4,vs UV-treated group,1.73
same,logFC ANKRD33,vs UV-treated group,2.69
same,logFC APOL6,vs UV-treated group,−1.51
same,logFC ARHGAP22,vs UV-treated group,1.66
same,logFC B4GALNT1,vs UV-treated group,1.55
same,logFC BHLHE22,vs UV-treated group,−1.90
same,logFC BRINP2,vs UV-treated group,−1.77
same,logFC BTC,vs UV-treated group,−1.84
same,logFC CCDC107,vs UV-treated group,1.50
same,logFC CCL8,vs UV-treated group,−2.80
same,logFC CCL26,vs UV-treated group,1.75
same,logFC CD163,vs UV-treated group,1.67
same,logFC CFB,vs UV-treated group,−1.96
same,logFC CHRNA9,vs UV-treated group,2.21
same,logFC CITED4,vs UV-treated group,1.63
same,logFC CLNS1AP1,vs UV-treated group,−1.80
same,logFC CPNE7,vs UV-treated group,1.61
same,logFC CTD-2587H24.5,vs UV-treated group,1.54
same,logFC CXCL9,vs UV-treated group,−1.79
same,logFC CYP51A1,vs UV-treated group,1.65
same,logFC DHRS3,vs UV-treated group,−1.60
same,logFC DYSF,vs UV-treated group,1.73
same,logFC EBF2,vs UV-treated group,1.62
same,logFC FAM20A,vs UV-treated group,−1.86
same,logFC FAM81A,vs UV-treated group,1.71
same,logFC FGD3,vs UV-treated group,−1.93
same,logFC FOLR3,vs UV-treated group,1.68
same,logFC GBP2,vs UV-treated group,−1.61
same,logFC GPR37L1,vs UV-treated group,−1.66
same,logFC HAUS1P2,vs UV-treated group,−1.54
same,logFC HCK,vs UV-treated group,−1.66
same,logFC HS3ST2,vs UV-treated group,2.50
same,logFC IFIT2,vs UV-treated group,−1.77
same,logFC ITGA10,vs UV-treated group,1.77
same,logFC JAK3,vs UV-treated group,−1.68
same,logFC KCNN4,vs UV-treated group,1.85
same,logFC KCNT2,vs UV-treated group,−2.21
same,logFC KIF1A,vs UV-treated group,3.05
same,logFC LINC00702,vs UV-treated group,1.60
same,logFC LINC00704,vs UV-treated group,1.69
same,logFC LINC01204,vs UV-treated group,1.64
same,logFC MET,vs UV-treated group,1.63
same,logFC MOB3B,vs UV-treated group,−1.70
same,logFC MYEOV,vs UV-treated group,1.98
same,logFC NRROS,vs UV-treated group,1.74
same,logFC NUDT8,vs UV-treated group,1.56
same,logFC PPP2R2C,vs UV-treated group,1.95
same,logFC PSAT1P3,vs UV-treated group,−2.19
same,logFC RARRES3,vs UV-treated group,−2.09
same,logFC RNF150,vs UV-treated group,−1.80
same,logFC RORB,vs UV-treated group,−1.57
same,logFC RP1-181J22.1,vs UV-treated group,−2.53
same,logFC RP11-21C4.1,vs UV-treated group,−1.95
same,logFC RP11-54A9.1,vs UV-treated group,1.63
same,logFC RP11-184E9.1,vs UV-treated group,1.78
same,logFC RP11-363H12.1,vs UV-treated group,−1.58
same,logFC RP11-367F23.2,vs UV-treated group,1.70
same,logFC RP11-379B8.1,vs UV-treated group,−1.72
same,logFC RP11-383F6.1,vs UV-treated group,−1.50
same,logFC RP11-400K9.4,vs UV-treated group,−1.51
same,logFC RP11-541M12.6,vs UV-treated group,1.70
same,logFC RP11-1100L3.8,vs UV-treated group,−1.70
same,logFC RPL34P31,vs UV-treated group,−1.89
same,logFC SCG2,vs UV-treated group,2.00
same,logFC SERPINB9,vs UV-treated group,−1.59
same,logFC SLC20A1,vs UV-treated group,1.56
same,logFC STX1A,vs UV-treated group,1.55
same,logFC TGM2,vs UV-treated group,1.58
same,logFC TLR2,vs UV-treated group,−1.63
same,logFC TM4SF1,vs UV-treated group,2.08
same,logFC TMEM154,vs UV-treated group,1.57
same,logFC TMEM178A,vs UV-treated group,−1.52
same,logFC TMEM233,vs UV-treated group,2.12
same,logFC TNFRSF9,vs UV-treated group,−1.68
same,logFC TNFSF10,vs UV-treated group,−2.14
same,logFC TNFSF13B,vs UV-treated group,−1.61
same,logFC TP63,vs UV-treated group,−1.61
